Data from patent publication US9586986B2, “Substituted 7-deazapurine ribonucleosides for therapeutic uses” (Institute of Organic Chemistry and Biochemistry ASCR, v.v.i., priority 2014, dated 2017).

Experiments:
Type in all cases: cell-based
[1] = test system: HCV subtype 1B replicon in Huh-7 cells; test: HCV sub-genomic reporter replicon assay, subtype 1B; conditions: Hepatitis C virus; Huh-7 cells, HCV subtype 1B replicon; read-out: Replicon 1B EC50
Experimental: (§1) Compounds were also tested in Huh-7 cells harboring sub-genomic reporter replicons derived from HCV subtypes 1B and 2A (ref.: Stuyver, L. J.; Whitaker, T.; McBrayer, T. R.; Hernandez-Santiago, B. I.; Lostia, S.; Tharnish, P. M.; Ramesh, M.; Chu, C. K.; Jordan, R.; Shi, J. X.; Rachakonda, S.; Watanabe, K. A.; Otto, M. J.; Schinazi, R. F. Antimicrob. Agents Chemother. 2003, 47, 244-254).

A549 = test: Cytostatic/cytotoxic MTT assay, A549; conditions: Homo sapiens, A549; 72 h incubation; read-out: MTT, IC50 A549
Source text: (§2) Unless otherwise stated, all cells were purchased from the […] (ATCC). The CCRF-CEM line is derived from T lymphoblastic leukemia, evincing high chemosenzitivity, K562 represent cells from a […] patient sample with bcr-abl translocation, HCT116 is colorectal tumor cell line and its p53 gene knock-down counterpart (HCT116p53−/−, Horizon Discovery, UK) is a model of human cancers with p53 inactivation frequently associated with poor prognosis, A549 cell line is lung adenocarcinoma. The daunorubicin resistant subline of CCRF-CEM cells (CEM-DNR bulk) and paclitaxel resistant subline K562-TAX were selected in our laboratory by cultivation of maternal cell lines in increasing concentrations of daunorubicine or paclitaxel, respectively. The CEM-DNR cells overexpress mrp-1 and mdr-1 genes, while K562-TAX cells overexpress mdr-1 only. Both proteins belong to the family of ABC transporters and are involved in the primary and/or acquired multidrug resistance phenomenon (ref.: Gottesman, M. M.; Fojo, T.; Bates, S. E. Multidrug resistance in cancer: role of ATP-dependent transporters. Nat. Rev. Cancer. 2002, 2, 48-58. (b) Noskova, V.; Dzubak, P.; Kuzmina, G.; Ludkova, A.; Stehlik, D.; Trojanec, R.; Janostakova, A.; Korinkova, G.; Mihal, V.; Hajduch, M. In vitro chemoresistance profile and expression/function of MDR associated proteins in resistant cell lines derived from CCRF-CEM, K562, A549 and MDA MB 231 parental cells. Neoplasma 2002, 49, 418-425). Non-malignant MRC-5 and BJ cells, derived from normal human fibroblasts, were used as controls. The cells were maintained in Nunc/Corning 80 cm^2 plastic tissue culture flasks and cultured in cell culture medium (DMEM/RPMI 1640 with 5 g/L glucose, 2 mM glutamine, 100 U/mL penicillin, 100 µg/mL streptomycin, 10% fetal calf serum, and NaHCO3). Cell suspensions were prepared and diluted according to the particular cell type and the expected target cell density (25,000-30,000 cells/well based on cell growth characteristics). Cells were added by pipette (80 L) into 96-well microtiter plates. Inoculates were allowed a pre-incubation period of 24 h at 37° C. and 5% CO2 for stabilization. Four-fold dilutions, in 20-L aliquots, of the intended test concentration were added to the microtiter plate walls at time zero. All test compound concentrations were examined in duplicate. Incubation of the cells with the test compounds lasted for 72 h at 37° C., in a 5% CO2 atmosphere at 100% humidity. At the end of the incubation period, the cells were assayed using MTT. Aliquots (10 L) of the MTT stock solution (5 mg/ml) were pipetted into each well and incubated for another 1-4 h. After this incubation period the formazan produced was dissolved by addition of 100 µL/well of 10% aq SDS (pH 5.5), followed by a further incubation at 37° C. overnight. The optical density was measured at 540 nm. The IC50 value, the drug concentration inhibiting the cell growth by 50%, was calculated from appropriate dose-response curves.
(§3) In vitro cytotoxic/cytostatic activity final nucleosides 1-5 was initially evaluated against […] cell lines derived from human solid tumors including lung (A549 cells) and colon (HCT116 and HCT116p53−/−) carcinomas, as well as leukemia cell lines (CCRF-CEM, CEM-DNR, K562 and K562-TAX) and, for comparison, non-malignant BJ and MRC-5 fibroblasts. Concentrations inhibiting the cell growth by 50% (IC50) were determined using a quantitative metabolic staining with 3-(4,5-dimethylthiazol-2-yl)-2,5-diphenyltetrazolium bromide (MTT) (ref.: Denizot, F.; Lang, R. Rapid colorimetric assay for cell growth and survival: Modifications to the tetrazolium dye procedure giving improved sensitivity and reliability. J. Immunol. Meth. 1986, 89, 271-277) following a 3-day treatment.

CCRF-CEM = test: Cytostatic/cytotoxic MTT assay, CCRF-CEM; conditions: Homo sapiens, 72 h incubation, read-out: MTT, IC50 CCRF-CEM
Source text: as §2, §3

MRC-5 = test: Cytostatic/cytotoxic MTT assay, MRC-5 fibroblasts; conditions: Homo sapiens, MRC5; non-malignant fibroblasts, 72 h; read-out: MTT, IC50 MRC-5
Source text: as §2, §3

[2] = test system: Huh-7 cells harboring replicon 1B; test: Cytotoxicity in replicon 1B cells; conditions: HCV subtype 1B replicon
Experimental: as §1

[3] = test system: Huh-7 cells harboring replicon 2A; test: Cytotoxicity in replicon 2A cells; conditions: HCV subtype 2A replicon
Experimental: as §1

[4] = test system: HCV subtype 2A replicon in Huh-7 cells; test: HCV sub-genomic reporter replicon assay, subtype 2A; conditions: Hepatitis C virus; Huh-7 cells, HCV subtype 2A replicon; read-out: Replicon 2A EC50
Experimental: as §1

Cc1ncnc2c1c(-c1cccs1)cn2[C@@H]1O[C@H](CO)[C@@H](O)[C@H]1O [Compound 5c, 4-Methyl-7-(β-D-ribofuranosyl)-5-(thiophen-2-yl)-7H-pyrrolo[2,3-d]pyrimidine]
EC50 [1]: 6.67 µM | IC50 (A549): > 20 µM | IC50 (CCRF-CEM): > 20 µM | IC50 (MRC-5): > 100 µM | CC50 [2]: > 44 µM | CC50 [3]: > 44 µM | EC50 [4]: > 44 µM

C#Cc1cn([C@@H]2O[C@H](CO)[C@@H](O)[C@H]2O)c2ncnc(C)c12 [Compound 5g, 5-Ethynyl-4-methyl-7-(β-D-ribofuranosyl)-7H-pyrrolo[2,3-d]pyrimidine]
EC50 [1]: 0.23 µM | IC50 (A549): 19.2 µM | IC50 (CCRF-CEM): 5.6 µM | IC50 (MRC-5): 1.44 µM | CC50 [2]: > 44 µM | CC50 [3]: > 44 µM | EC50 [4]: 21.6 µM

COc1ncnc2c1c(-c1ccoc1)cn2[C@@H]1O[C@H](CO)[C@@H](O)[C@H]1O [Compound 1b, 5-(Furan-3-yl)-4-methoxy-7-(β-D-ribofuranosyl)-7H-pyrrolo[2,3-d]pyrimidine]
EC50 [1]: 0.33 µM | IC50 (A549): 1.16 µM | IC50 (CCRF-CEM): 0.11 µM | IC50 (MRC-5): 29.4 µM | CC50 [2]: > 44 µM | CC50 [3]: > 44 µM | EC50 [4]: 8.28 µM

CNc1ncnc2c1c(-c1ccsc1)cn2[C@@H]1O[C@H](CO)[C@@H](O)[C@H]1O [Compound 3d, 4-Methylamino-7-(β-D-ribofuranosyl)-5-(thiophen-3-yl)-7H-pyrrolo[2,3-d]pyrimidine]
EC50 [1]: > 44 µM | IC50 (A549): > 20 µM | IC50 (CCRF-CEM): > 20 µM | IC50 (MRC-5): > 100 µM | CC50 [2]: > 44 µM | CC50 [3]: > 44 µM | EC50 [4]: > 44 µM

CSc1ncnc2c1c(-c1ccoc1)cn2[C@@H]1O[C@H](CO)[C@@H](O)[C@H]1O [Compound 2b, 5-(Furan-3-yl)-4-methylsulfanyl-7-(β-D-ribofuranosyl)-7H-pyrrolo[2,3-d]pyrimidine]
EC50 [1]: 4.72 µM | IC50 (A549): 0.28 µM | IC50 (CCRF-CEM): 14.2 µM | IC50 (MRC-5): > 100 µM | CC50 [2]: > 44 µM | CC50 [3]: > 44 µM | EC50 [4]: > 44 µM

COc1ncnc2c1c(I)cn2[C@@H]1O[C@H](CO)[C@@H](O)[C@H]1O [Compound 1h, 5-iodo-4-methoxy-7-(β-D-ribofuranosyl)-7H-pyrrolo[2,3-d]pyrimidine, reference compound]
EC50 [1]: > 44 µM | IC50 (A549): > 20 µM | IC50 (CCRF-CEM): 1.15 µM | IC50 (MRC-5): 63 µM | CC50 [2]: > 44 µM | CC50 [3]: > 44 µM | EC50 [4]: > 44 µM

COc1ncnc2c1c(-c1cc3ccccc3o1)cn2[C@@H]1O[C@H](CO)[C@@H](O)[C@H]1O [Compound 1f, 5-(Benzofuran-2-yl)-4-methoxy-7-(β-D-ribofuranosyl)-7H-pyrrolo[2,3-d]pyrimidine]
EC50 [1]: 2.64 µM | IC50 (A549): 17.7 µM | IC50 (CCRF-CEM): 5.37 µM | IC50 (MRC-5): 65.6 µM | CC50 [2]: > 44 µM | CC50 [3]: > 44 µM | EC50 [4]: 10.2 µM

CNc1ncnc2c1c(-c1cccs1)cn2[C@@H]1O[C@H](CO)[C@@H](O)[C@H]1O [Compound 3c, 4-Methylamino-7-(β-D-ribofuranosyl)-5-(thiophen-2-yl)-7H-pyrrolo[2,3-d]pyrimidine]
EC50 [1]: > 44 µM | IC50 (A549): > 20 µM | IC50 (CCRF-CEM): > 20 µM | IC50 (MRC-5): > 100 µM | CC50 [2]: > 44 µM | CC50 [3]: > 44 µM | EC50 [4]: > 44 µM

CNc1ncnc2c1ccn2[C@@H]1O[C@H](CO)[C@@H](O)[C@H]1O [RC3, reference compound]
EC50 [1]: 0.82 µM | IC50 (A549): > 20 µM | IC50 (CCRF-CEM): > 20 µM | IC50 (MRC-5): 97.8 µM | CC50 [2]: > 44 µM | CC50 [3]: > 44 µM | EC50 [4]: > 44 µM

CSc1ncnc2c1c(-c1cccs1)cn2[C@@H]1O[C@H](CO)[C@@H](O)[C@H]1O [Compound 2c, 4-Methylsulfanyl-7-(β-D-ribofuranosyl)-5-(thiophen-2-yl)-7H-pyrrolo[2,3-d]pyrimidine]
EC50 [1]: 5.42 µM | IC50 (A549): > 20 µM | IC50 (CCRF-CEM): > 20 µM | IC50 (MRC-5): > 100 µM | CC50 [2]: > 44 µM | CC50 [3]: > 44 µM | EC50 [4]: > 44 µM

CN(C)c1ncnc2c1c(I)cn2[C@@H]1O[C@H](CO)[C@@H](O)[C@H]1O [Compound 4h, 4-Dimethylamino-5-iodo-7-(β-D-ribofuranosyl)-7H-pyrrolo[2,3-d]pyrimidine]
EC50 [1]: 0.69 µM | IC50 (A549): 0.34 µM | IC50 (CCRF-CEM): 1.59 µM | IC50 (MRC-5): 91.7 µM | CC50 [2]: > 44 µM | CC50 [3]: > 44 µM | EC50 [4]: > 44 µM

CN(C)c1ncnc2c1c(-c1ccccc1)cn2[C@@H]1O[C@H](CO)[C@@H](O)[C@H]1O [Compound 4e, 4-Dimethylamino-5-phenyl-7-(β-D-ribofuranosyl)-7H-pyrrolo[2,3-d]pyrimidine]
EC50 [1]: 26.9 µM | IC50 (A549): > 100 µM | IC50 (CCRF-CEM): > 20 µM | IC50 (MRC-5): > 100 µM | CC50 [2]: > 44 µM | CC50 [3]: > 44 µM | EC50 [4]: > 44 µM

CNc1ncnc2c1c(-c1ccoc1)cn2[C@@H]1O[C@H](CO)[C@@H](O)[C@H]1O [Compound 3b, 5-(Furan-3-yl)-4-methylamino-7-(β-D-ribofuranosyl)-7H-pyrrolo[2,3-d]pyrimidine]
EC50 [1]: 35.9 µM | IC50 (A549): > 20 µM | IC50 (CCRF-CEM): > 20 µM | IC50 (MRC-5): > 100 µM | CC50 [2]: > 44 µM | CC50 [3]: > 44 µM | EC50 [4]: > 44 µM

C#Cc1cn([C@@H]2O[C@H](CO)[C@@H](O)[C@H]2O)c2ncnc(OC)c12 [Compound 1g, 5-Ethynyl-4-methoxy-7-(β-D-ribofuranosyl)-7H-pyrrolo[2,3-d]pyrimidine]
EC50 [1]: 0.18 µM | IC50 (A549): 8.16 µM | IC50 (CCRF-CEM): > 20 µM | IC50 (MRC-5): > 100 µM | CC50 [2]: > 44 µM | CC50 [3]: > 44 µM | EC50 [4]: > 44 µM

Cc1ncnc2c1c(-c1cc3ccccc3o1)cn2[C@@H]1O[C@H](CO)[C@@H](O)[C@H]1O [Compound 5f, 5-(Benzofuran-2-yl)-4-methyl-7-(β-D-ribofuranosyl)-7H-pyrrolo[2,3-d]pyrimidine]
EC50 [1]: 6.76 µM | IC50 (A549): > 20 µM | IC50 (CCRF-CEM): 17.3 µM | IC50 (MRC-5): 84.4 µM | CC50 [2]: > 44 µM | CC50 [3]: > 44 µM | EC50 [4]: 40.2 µM

COc1ncnc2c1c(-c1ccco1)cn2[C@@H]1O[C@H](CO)[C@@H](O)[C@H]1O [Compound 1a, 5-(Furan-2-yl)-4-methoxy-7-(β-D-ribofuranosyl)-7H-pyrrolo[2,3-d]pyrimidine]
EC50 [1]: 0.02 µM | IC50 (A549): 0.03 µM | IC50 (CCRF-CEM): 0.02 µM | IC50 (MRC-5): 1.7 µM | CC50 [2]: > 44 µM | CC50 [3]: > 44 µM | EC50 [4]: 0.03 µM

COc1ncnc2c1ccn2[C@@H]1O[C@H](CO)[C@@H](O)[C@H]1O [RC1, reference compound]
EC50 [1]: 43.2 µM | IC50 (A549): > 20 µM | IC50 (CCRF-CEM): > 20 µM | IC50 (MRC-5): > 100 µM | CC50 [2]: > 44 µM | CC50 [3]: > 44 µM | EC50 [4]: > 44 µM
